Format in all cases: organism-based
What all share (settings): in vivo

For series [1], the system named is Mus musculus. In words: Toxicity in BS1 mouse assessed as death at 500 mg/kg, ip within 4 mins. Set-up: dose 500 mg/kg, route intraperitoneal.
In series [2] the test system is Mus musculus. The experiment in a line: Toxicity in BS1 mouse assessed as occurrence of liver lesions at 250 mg/kg, ip. Set-up: dose 250 mg/kg, route intraperitoneal.
The test system of series [3] is Mus musculus. In words: Toxicity in BS1 mouse assessed as ataxia at 250 mg/kg, ip. Set-up: dose 250 mg/kg, route intraperitoneal.
In series [4] the test system is Mus musculus. In words: Toxicity in BS1 mouse assessed as lethargy, ataxia, gasping and clonic convulsion at 500 mg/kg, ip within 4 mins. Set-up: dose 500 mg/kg, route intraperitoneal.
The test system of series [5] is Mus musculus. In words: Toxicity in BS1 mouse at 125 mg/kg, ip. Set-up: dose 125 mg/kg, route intraperitoneal.
Series [6] deals with Mus musculus. In words: Toxicity in BS1 mouse assessed as lethargy at 250 mg/kg, ip. The arrangement: dose 250 mg/kg, route intraperitoneal.
For series [7], the system named is Mus musculus. In words: Toxicity in BS1 mouse at 63 mg/kg, ip. Set-up: dose 63 mg/kg, route intraperitoneal.

As for `C/C=C(\C)C(=O)O[C@@H](C)[C@](O)(C(=O)OCC1=CCN2CC[C@@H](OC(C)=O)[C@@H]12)C(C)C`, the Activity result is given as “Toxic” in the series on Mus musculus [1]; “Non-toxic” in the series on Mus musculus [2]; “Toxic” in the series with Mus musculus [3]; “Toxic” in the series on Mus musculus [4]; “Non-toxic” in the series on Mus musculus [5]; “Toxic” in the series with Mus musculus [6]. The Activity entry in the series with Mus musculus [7] was “Non-toxic”.

`C/C=C(\C)C(=O)O[C@@H](C)[C@](O)(C(=O)OCC1=CCN2CC[C@@H](O)[C@@H]12)C(C)C` [SCORPIOIDINE]: the Activity entry is “Toxic” in the series with Mus musculus [1]; “Non-toxic” with Mus musculus [2]; “Toxic” in the series with Mus musculus [3]; “Toxic” in the series on Mus musculus [4]; “Non-toxic” in the series with Mus musculus [5]; “Toxic” in the series with Mus musculus [6]. Moreover, the Activity result with Mus musculus [7] is “Non-toxic”.
